Here are results for 13 molecules from patent publication US8906904B2, “Alkoxy pyrazoles as soluble guanylate cyclase activators” (Boehringer Ingelheim International GmbH, priority 2012, dated 2014).

Bounds are passed on as bounds.

The target of one series is T1, human soluble guanylate cyclase alpha 1 and beta 1 subunits (sGC) (Homo sapiens, UniProt Q02108+Q02153).
T1 construct: expressed in transfected cells; host or cells: Chinese hamster ovary (CHO) cells, stably transfected
T1 sequence (Q02108 1-690): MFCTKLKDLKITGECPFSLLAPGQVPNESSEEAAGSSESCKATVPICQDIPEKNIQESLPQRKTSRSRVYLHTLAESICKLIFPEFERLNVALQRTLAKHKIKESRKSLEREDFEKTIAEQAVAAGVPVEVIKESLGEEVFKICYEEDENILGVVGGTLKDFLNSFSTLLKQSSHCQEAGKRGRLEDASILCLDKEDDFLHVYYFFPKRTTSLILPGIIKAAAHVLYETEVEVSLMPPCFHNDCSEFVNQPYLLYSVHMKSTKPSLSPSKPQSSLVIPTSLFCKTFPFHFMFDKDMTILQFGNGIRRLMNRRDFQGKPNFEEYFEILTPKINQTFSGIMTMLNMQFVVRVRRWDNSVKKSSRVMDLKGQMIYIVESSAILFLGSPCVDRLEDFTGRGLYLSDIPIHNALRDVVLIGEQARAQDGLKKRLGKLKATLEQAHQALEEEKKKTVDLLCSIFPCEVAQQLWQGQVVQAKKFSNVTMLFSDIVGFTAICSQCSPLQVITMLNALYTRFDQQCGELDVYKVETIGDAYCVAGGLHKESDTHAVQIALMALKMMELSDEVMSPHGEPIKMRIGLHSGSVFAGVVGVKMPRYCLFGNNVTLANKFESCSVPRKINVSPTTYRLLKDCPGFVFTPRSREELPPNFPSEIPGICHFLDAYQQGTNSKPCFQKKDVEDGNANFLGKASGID
T1 sequence (Q02153 1-619): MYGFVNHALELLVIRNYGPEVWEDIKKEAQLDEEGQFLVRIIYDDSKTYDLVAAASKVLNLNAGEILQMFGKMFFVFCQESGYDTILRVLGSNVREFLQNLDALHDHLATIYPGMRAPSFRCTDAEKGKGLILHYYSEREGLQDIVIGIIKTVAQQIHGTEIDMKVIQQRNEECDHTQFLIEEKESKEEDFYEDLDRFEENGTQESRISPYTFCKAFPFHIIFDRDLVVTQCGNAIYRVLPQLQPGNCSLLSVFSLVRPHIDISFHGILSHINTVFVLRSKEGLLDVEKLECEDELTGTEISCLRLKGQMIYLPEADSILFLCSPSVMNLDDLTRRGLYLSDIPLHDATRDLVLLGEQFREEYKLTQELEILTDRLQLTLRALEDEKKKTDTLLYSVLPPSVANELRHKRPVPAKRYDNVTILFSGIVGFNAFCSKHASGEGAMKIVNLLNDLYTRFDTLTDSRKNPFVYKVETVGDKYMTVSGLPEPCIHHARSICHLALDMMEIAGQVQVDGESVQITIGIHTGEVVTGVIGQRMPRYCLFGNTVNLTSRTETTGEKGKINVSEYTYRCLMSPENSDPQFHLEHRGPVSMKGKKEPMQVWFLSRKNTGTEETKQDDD
Description: sGC cellular activator assay (cGMP, HTRF). The format is cell-based. Particulars: CHO cells stably expressing human sGC alpha 1/beta 1, preincubated with 40 microM ODQ; cGMP readout; assay run with and without 50% human serum, Table 2 does not say which. On the procedure:
The sGC cellular activator assay is performed in the presence and absence of 50% human serum (HS) using Chinese hamster ovary cells that have been stably transfected to express the human soluble guanylate cyclase alpha 1 and beta 1 subunits (sGC). Cells are preincubated with 40 microM 1H-[1,2,4]oxadiazolo[4,3-a]quinoxalin-1-one (ODQ), an sGC inhibitor, for one h in buffer containing 0.1% bovine serum albumin and 3-isobutyl-1-methylxanthine (IBMX). Concentration response curves are prepared for test compounds in DMSO. An intermediate dilution of the compounds is performed in either buffer containing IBMX or type AB HS containing IBMX. Diluted compounds are added to cells and they are incubated at room temperature for thirty min. cGMP is measured using a CisBio homogeneous time resolved fluorescence kit and the EC50 is calculated for each compound.
Representative compounds of the present invention were tested for activity the above assay. Preferred compounds have an EC50 of <1,000 nM in the above assay and more preferred compounds have an EC50<200 nM.
For orientation: In TR-FRET formats the signal depends on donor and acceptor labels being close together.
`Cc1cccc(-c2cccc(-n3ncc(C(=O)O)c3OC(C)C)n2)c1OCc1ccc2c(c1)CCN([C@H]1CCCOC1)C2` [Compound 115] gave an EC50 of 68 nM.
`Cc1cccc(-c2cccc(-n3ncc(C(=O)O)c3OC(C)C)n2)c1OCc1ccc2c(c1C)CCN([C@H]1CCCOC1)C2` [Compound 117] yielded a 50% effective concentration (EC50) of 29 nM.
The same measure, in the same setting: in the case of `CCOc1c(C(=O)O)cnn1-c1cccc(-c2cccc(C)c2OCc2cc(C)c3c(c2)CN(C2CCOCC2)C3)n1` [Compound 118] it was 39 nM; in that of `CCOc1c(C(=O)O)cnn1-c1cccc(-c2cccc(C)c2OCc2ccc3c(c2C)CN(C2CCOCC2)C3)n1` [Compound 119], 57 nM; in that of `COc1c(C(=O)O)cnn1-c1cccc(-c2cccc(C)c2OCc2cc(C)c3c(c2C)CCN(C2CCOCC2)C3)n1` [Compound 120], 12 nM.
With `COc1c(C(=O)O)cnn1-c1cccc(-c2cccc(C)c2OCc2cc3c(cc2C)CN(C2CCOCC2)CC3)n1` [Compound 121], the EC50 turned out to be 40 nM.
`COc1c(C(=O)O)cnn1-c1cccc(-c2cc(C)ccc2OCc2ccc3c(c2C)CCN(C2CCOCC2)C3)n1` [Compound 124] displayed an EC50 of 47 nM.
`CCOc1c(C(=O)O)cnn1-c1cccc(-c2cccc(C)c2OCc2ccc3c(c2C)CCN([C@H]2CCOC2)C3)n1` [Compound 125] returned a concentration giving a half-maximal response (EC50) of 27 nM.
With `CCOc1c(C(=O)O)cnn1-c1cccc(-c2cccc(C)c2OCc2ccc3c(c2C)CCN([C@@H]2CCOC2)C3)n1` [Compound 126], it took 58 nM to reach a half-maximal effect (EC50).
In turn, `CCOc1c(C(=O)O)cnn1-c1cccc(-c2cccc(C)c2OCc2ccc3c(c2C)CCN([C@@H]2CCCOC2)C3)n1` [Compound 128] gave an EC50 of 15 nM.
Still for that read-out and setting: in the case of `CCOc1c(C(=O)O)cnn1-c1cccc(-c2cccc(C)c2OCc2ccc3c(c2C)CCN([C@H]2CCCOC2)C3)n1` [Compound 129] it was 17 nM; in that of `COc1c(C(=O)O)cnn1-c1cccc(-c2cccc(C)c2OCc2ccc3c(c2)OCCN(C2CCOCC2)C3)n1` [Compound 130], 21 nM; in that of `CCOc1c(C(=O)O)cnn1-c1cccc(-c2cccc(C)c2OCc2ccc3c(c2)OCCN(C2CCOCC2)C3)n1` [Compound 131], 410 nM.

Tested on in another series: not listed separately
Put plainly: human liver microsome (HLM) metabolic stability assay. Particulars: human liver microsomes; % hepatic blood flow calculated from t1/2. The format is in vitro ADME. On the procedure:
The 5 time point, high-throughput human liver microsome (HLM) metabolic stability assay is designed to determine in vitro compound metabolism. Compounds are incubated with HLMs at a concentration of 1 uM, at 37° C., for a total of 60 min. The percent of compound remaining at 5, 15, 30, and 60 min is used to calculate the t½ (min), CLint (mL/min/kg), CLh (mL/min/kg), and % Qh. The assay is based on a 96-well format and can accommodate up to 92 compounds per plate (n=1).
Using the 96-well multi-channel head, the Biomek FX, equipped with a Peltier heating block/shaker, is programmed to accomplish the following steps: • 1. Pipette 175 uL of 1.15 mg/mL microsomes into each of the 96 conical inserts (Analytical Sales and Products, catalog number 96PL05) that fit into the plate of the Peltier heating block/shaker (the incubation plate) • 2. Add 5 uL of compounds from the assay plate to the microsomes and shake the mixture at 600 rpm at 42.1° C. for 10 min (a setting of 42.1° C. on the Peltier is required for the samples to incubate at 37° C.) • 3. After 10 min, prompt the user to add the NADPH plate to the deck and add 20 uL from the NADPH plate to the incubation plate to start the reaction • 4. Add 215 uL of 100%, cold acetonitrile containing an internal standard(s) to a 0 minute, 5 minute, 15 minute, 30 minute, and 60 minute “quench” plate • 5. At 0 min, 5 min, 15 min, 30 min, and 60 min into the incubation, aspirate 12 uL from the incubation mixture and add it to the quench solution to stop the reaction • 6. Add 185 uL HPLC grade water to each well of the 0, 5, 15, 30 and 60 minute quench plates to dilute compounds to the appropriate concentration for the mass spectrometer
After all time points are collected, the quench plates are sealed with 96-well pierceable plate mats or heat sealing foil and centrifuged at 3000 rpm for 15 min to pellet the microsomes.
The plates are analyzed using LC/MS/MS with electron spray ionization (ESI) and the previously determined MRM transitions. The LC method includes the following parameters:
Using an Excel template in Activitybase, the peak areas corresponding to 5, 15, 30 and 60 min are compared to the peak area at 0 min to calculate the percent of remaining compound using the following equation: Percent compound remaining=(AUC at Time t min/AUC at Time 0 min)×100 where t=0, 5, 15, 30 or 60 min.
Time (min) is plotted against the natural logarithm (Ln) of the percent compound remaining to determine the slope. The slope is used to calculate t½ (min) using the equation, t½=0.693/slope.
Preferred compounds have % Qh values of less than 24.
As for `Cc1cccc(-c2cccc(-n3ncc(C(=O)O)c3OC(C)C)n2)c1OCc1ccc2c(c1)CCN([C@H]1CCCOC1)C2` [Compound 115], the “HLM (% Qh)” value is 25 % Qh.
In the case of `Cc1cccc(-c2cccc(-n3ncc(C(=O)O)c3OC(C)C)n2)c1OCc1ccc2c(c1C)CCN([C@H]1CCCOC1)C2` [Compound 117], the “HLM (% Qh)” value is recorded as 25 % Qh.
Turning to `CCOc1c(C(=O)O)cnn1-c1cccc(-c2cccc(C)c2OCc2cc(C)c3c(c2)CN(C2CCOCC2)C3)n1` [Compound 118], the “HLM (% Qh)” value is under 24 % Qh.
As for `CCOc1c(C(=O)O)cnn1-c1cccc(-c2cccc(C)c2OCc2ccc3c(c2C)CN(C2CCOCC2)C3)n1` [Compound 119], the “HLM (% Qh)” value is reported as under 24 % Qh.
As to `COc1c(C(=O)O)cnn1-c1cccc(-c2cccc(C)c2OCc2cc(C)c3c(c2C)CCN(C2CCOCC2)C3)n1` [Compound 120], the “HLM (% Qh)” value was under 24 % Qh.
Regarding `COc1c(C(=O)O)cnn1-c1cccc(-c2cccc(C)c2OCc2cc3c(cc2C)CN(C2CCOCC2)CC3)n1` [Compound 121], the “HLM (% Qh)” value was under 24 % Qh.
For `COc1c(C(=O)O)cnn1-c1cccc(-c2cc(C)ccc2OCc2ccc3c(c2C)CCN(C2CCOCC2)C3)n1` [Compound 124], the “HLM (% Qh)” value was under 24 % Qh.
On the same count and under the same terms, in the case of `CCOc1c(C(=O)O)cnn1-c1cccc(-c2cccc(C)c2OCc2ccc3c(c2C)CCN([C@H]2CCOC2)C3)n1` [Compound 125] it was under 24 % Qh.
Same read-out and setting: in the case of `CCOc1c(C(=O)O)cnn1-c1cccc(-c2cccc(C)c2OCc2ccc3c(c2C)CCN([C@@H]2CCOC2)C3)n1` [Compound 126] it was under 24 % Qh; in that of `CCOc1c(C(=O)O)cnn1-c1cccc(-c2cccc(C)c2OCc2ccc3c(c2C)CCN([C@@H]2CCCOC2)C3)n1` [Compound 128], under 24 % Qh.
Regarding `CCOc1c(C(=O)O)cnn1-c1cccc(-c2cccc(C)c2OCc2ccc3c(c2C)CCN([C@H]2CCCOC2)C3)n1` [Compound 129], the “HLM (% Qh)” value was under 24 % Qh.
On the same count and under the same terms, in the case of `COc1c(C(=O)O)cnn1-c1cccc(-c2cccc(C)c2OCc2ccc3c(c2)OCCN(C2CCOCC2)C3)n1` [Compound 130] it was 25 % Qh; in that of `CCOc1c(C(=O)O)cnn1-c1cccc(-c2cccc(C)c2OCc2ccc3c(c2)OCCN(C2CCOCC2)C3)n1` [Compound 131], 28 % Qh.

As a reminder, the EC50 is the concentration giving half of the maximal effect. Low readings indicate a more potent agent, high ones a less potent agent.
